Here are results for 70 compounds from patent US20090137577A1, “HETEROCYCLIC COMPOUNDS” (Pfizer Inc., priority 2007, published 2009).

T1 sequence (Q14416 19-872, species assumed): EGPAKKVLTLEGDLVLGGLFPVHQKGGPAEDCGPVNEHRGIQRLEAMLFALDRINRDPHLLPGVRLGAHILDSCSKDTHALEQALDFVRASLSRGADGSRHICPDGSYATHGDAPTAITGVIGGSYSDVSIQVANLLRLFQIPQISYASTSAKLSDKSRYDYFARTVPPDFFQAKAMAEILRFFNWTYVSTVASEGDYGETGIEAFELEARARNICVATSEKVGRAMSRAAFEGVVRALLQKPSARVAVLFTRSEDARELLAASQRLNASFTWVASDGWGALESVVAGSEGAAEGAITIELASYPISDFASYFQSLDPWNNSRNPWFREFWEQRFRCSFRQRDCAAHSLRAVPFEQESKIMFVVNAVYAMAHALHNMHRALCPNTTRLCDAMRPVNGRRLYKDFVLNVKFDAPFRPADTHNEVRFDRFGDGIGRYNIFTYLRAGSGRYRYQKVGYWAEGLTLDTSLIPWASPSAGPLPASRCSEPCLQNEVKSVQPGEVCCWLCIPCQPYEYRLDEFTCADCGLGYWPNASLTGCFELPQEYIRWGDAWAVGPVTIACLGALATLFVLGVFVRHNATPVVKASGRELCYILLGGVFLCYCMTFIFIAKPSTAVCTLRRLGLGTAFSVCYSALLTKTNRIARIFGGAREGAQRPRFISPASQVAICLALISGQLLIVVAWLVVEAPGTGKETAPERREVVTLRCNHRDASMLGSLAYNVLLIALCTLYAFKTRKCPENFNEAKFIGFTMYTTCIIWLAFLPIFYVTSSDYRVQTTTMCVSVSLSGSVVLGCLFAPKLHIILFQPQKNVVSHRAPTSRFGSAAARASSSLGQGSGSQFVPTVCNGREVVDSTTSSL

This assay addresses T1, mGluR2 receptor (metabotropic glutamate receptor 2) (Homo sapiens, UniProt Q14416).
T1 construct: expressed in transfected cells
As to the kind of experiment: mGluR2 potentiator screen (FLIPR, EC10-EC20 glutamate challenge).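 Note: HEK cells stably expressing human mGluR2 with GL15 G protein, Fluo-4 calcium fluorescence read on FLIPR, compounds added before an EC10-EC20 glutamate challenge to detect potentiation.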 It is filed as cell-based. The settings on record: geometric mean; read-out: mGluR 2 EC50 (geometric mean).
Broadly, the EC50 is the concentration that produces a half-maximal response. On to `CC1CN(Cc2ccc(OCc3cc(F)cc(F)c3)cc2)C(=O)O1` (stereo not shown) [Example 91], for which the EC50 came to 152 nM.

As to `CC(C)Oc1ccc(-c2ccc(CN3C[C@H](C)OC3=O)cc2)cc1` [Example 58, (5S)-3-[(4′-isopropoxybiphenyl-4-yl)methyl]-5-methyl-1,3-oxazolidin-2-one], the EC50 turned out to be 105 nM.

For the compound `C[C@@H]1CN(Cc2ccc(-c3ccc(Cl)cc3F)nc2)C(=O)O1` [Example 210, (5R)-3-{[6-(4-Chloro-2-fluorophenyl)pyridin-3-yl]methyl}-5-methyl-1,3-oxazolidin-2-one], the EC50 was 424 nM.

Regarding `CC(C)Oc1ccc(CN2CC(c3ccccc3)OC2=O)cc1` (stereo not shown) [Example 44], the EC50 is 572 nM.

`O=C1OC(c2ccccc2)CN1Cc1ccc(OCc2cccnc2)cc1` (stereo not shown) [Example 13]: the EC50 amounted to 218 nM.

For the compound `Cc1ccc(F)cc1COc1ccc(CN2CC(C)OC2=O)cc1` (stereo not shown) [Example 142], the concentration for a half-maximal effect (EC50) amounted to 43.5 nM.

With `O=C1OC(c2ccccc2)CN1Cc1ccc(OCC2CCCCC2)cc1` (stereo not shown) [Example 7], the EC50 came to 220 nM.

With `C[C@@H]1CN(Cc2ccc(OCCC3CCCCC3)c(Cl)c2)C(=O)O1` [Example 287, (5R)-3-[3-chloro-4-(2-cyclohexylethoxy)benzyl]-5-methyl-1,3-oxazolidin-2-one], the half-maximal effective concentration (EC50) is 174 nM.

`CC1CN(Cc2ccc(OCCCOc3ccc(F)cc3)cc2)C(=O)O1` (stereo not shown) [Example 152]: the EC50 was determined as 46 nM.

`CC1CN(Cc2ccc(OCCCc3cccnc3)cc2)C(=O)O1` (stereo not shown) [Example 120]: the half-maximal effective concentration (EC50) turned out to be 1150 nM.

On to `CC(C)Oc1ccc(-c2ccc(CN3C[C@@H](C)OC3=O)cc2)c(Cl)c1` [Example 280], for which the EC50 is less than 15.4 nM.

As to `C[C@@H]1CN(Cc2ccc(OCC3CCCCC3)c(Cl)c2)C(=O)O1` [Example 286, (5R)-3-[3-chloro-4-(cyclohexylmethoxy)benzyl]-5-methyl-1,3-oxazolidin-2-one], the EC50 worked out at 32.5 nM.

On to `CC(C)COc1ccc(CN2CC(C)(C)COC2=O)cc1` [Example 16], for which the EC50 worked out at 663 nM.

`C[C@@H]1CN(Cc2ccc(/C=C/c3ccccc3)cc2)C(=O)O1` [Example 317, (5R)-5-methyl-3-{4-[(E)-2-phenylvinyl]benzyl}-1,3-oxazolidin-2-one]: the EC50 came out at 36.4 nM.

`COc1ccc(-c2ccc(CN3C[C@@H](C)OC3=O)cc2)c(F)c1F` [Example 242]: the EC50 was less than 17.2 nM.

Consider `C[C@@H]1CN(Cc2ccc(-c3cccc(F)c3Cl)cc2F)C(=O)O1` [Example 251], for which the EC50 was found to be 55.9 nM.

For the compound `Cc1cc(CN2C[C@@H](C)OC2=O)ccc1OCC1CCCCC1` [Example 254, (5R)-3-[4-(Cyclohexylmethoxy)-3-methylbenzyl]-5-methyl-1,3-oxazolidin-2-one], the EC50 was 71.2 nM.

`CCOc1cccc(COc2ccc(CN3CC(C)OC3=O)cc2)c1` (stereo not shown) [Example 138]: the EC50 was determined as 87.3 nM.

With `COc1cc(COc2ccc(CN3CC(C)OC3=O)cc2)ccc1F` (stereo not shown) [Example 127], the EC50 was 1680 nM.

`C[C@@H]1CN(Cc2ccc(-c3ccc(C(F)(F)F)cc3F)cc2F)C(=O)O1` [Example 252]: the EC50 was 29.3 nM.

Consider `O=C1OCCCN1Cc1ccc(OCC2CCC2)cc1` [Example 28], for which the EC50 was 1240 nM.

As for `C[C@@H]1CN(Cc2ccc(-c3ccc4c(c3)OCCCO4)cc2)C(=O)O1` [Example 189], the EC50 was determined as 83.7 nM.

`C[C@@H]1CN(Cc2ccc(O[C@@H](C)c3ccccc3)cc2)C(=O)O1` [Example 69]: the concentration for a half-maximal effect (EC50) was found to be 173 nM.

In the case of `CC1CN(Cc2ccc(OCc3ccc(Cl)cc3F)cc2)C(=O)O1` (stereo not shown) [Example 88], the EC50 was determined as 66.6 nM.

As to `COc1ccc(-c2ccc(CN3C[C@@H](C)OC3=O)cc2F)c(F)c1F` [Example 293], the EC50 is less than 59.9 nM.

In the case of `C[C@@H]1CN(Cc2ccc(-c3ccc(F)cc3F)cc2F)C(=O)O1` [Example 249, (5R)-5-methyl-3-[(2′,3,4′-trifluorobiphenyl-4-yl)methyl]-1,3-oxazolidin-2-one], the EC50 was less than 28.4 nM.

As for `C[C@H](Oc1ccc(CN2C[C@H](C)OC2=O)cc1)c1ccccc1` [Example 70], the EC50 amounted to 209 nM.

With `CCN(C)CC1CN(Cc2ccc(-c3ccc(F)cc3F)cc2)C(=O)O1` (stereo not shown) [Example 304, 3-[(2′,4′-difluorobiphenyl-4-yl)methyl]-5-{[ethyl(methyl)amino]methyl}-1,3-oxazolidin-2-one], the EC50 came out at 581 nM.

For the compound `CC1CN(Cc2ccc(OCCC3CCCC3)cc2)C(=O)O1` (stereo not shown) [Example 92], the EC50 stood at 10.8 nM.

Turning to `C[C@@H]1CN(Cc2ccc(-c3cccc(Cl)c3F)c(F)c2)C(=O)O1` [Example 291, (5R)-3-[(3′-chloro-2,2′-difluorobiphenyl-4-yl)methyl]-5-methyl-1,3-oxazolidin-2-one], the EC50 came out at 59.6 nM.

As for `CC1CN(Cc2ccc(OCCCc3ccncc3)cc2)C(=O)O1` (stereo not shown) [Example 116], the concentration giving a half-maximal response (EC50) stood at 934 nM.

As to `COc1ccc(-c2ccc(CN3C[C@@H](C)OC3=O)cc2)cc1OC` [Example 190], the EC50 was determined as 676 nM.

As to `C[C@@H]1CN(Cc2ccc(-c3ccc(C(F)(F)F)cc3Cl)cc2)C(=O)O1` [Example 272], the EC50 was 20.1 nM.

As to `CC(Oc1ccc(CN2CCOC2=O)cc1)C1CCCCC1` (stereo not shown) [Example 42], the EC50 was determined as 677 nM.

As to `C[C@@H]1CN(Cc2ccc(-c3ccc(N4CCOCC4)nc3)cc2)C(=O)O1` [Example 154], the EC50 worked out at 1240 nM.

`C[C@H]1CN(Cc2ccc(O[C@H](C)c3ccccc3)cc2)C(=O)O1` [Example 68]: the EC50 was 299 nM.

Take `C[C@@H]1CN(Cc2ccc(-c3nc(C(C)(C)C)cs3)cc2)C(=O)O1` [Example 183]: the concentration giving a half-maximal response (EC50) was found to be 150 nM.

As for `Cc1cc(C)n(-c2cccc(-c3ccc(CN4C[C@@H](C)OC4=O)cc3)c2)n1` [Example 199], the EC50 stood at 804 nM.

In the case of `CC(Oc1ccc(CN2CC(c3cccnc3)OC2=O)cc1)C1CCCCC1` (stereo not shown) [Example 208], the EC50 was found to be 41.6 nM.

For the compound `COc1ccccc1COc1ccc(CN2CC(C)OC2=O)cc1` (stereo not shown) [Example 118], the half-maximal effective concentration (EC50) was 89.4 nM.

For the compound `C[C@H]1[C@@H](c2ccccc2)OC(=O)N1Cc1ccc(OCc2cccnc2)cc1` [Example 32], the EC50 is 245 nM.

On to `C[C@H]1[C@@H](c2ccccc2)OC(=O)N1Cc1ccc(OCC2CCC2)cc1` [Example 24], for which the EC50 came out at 660 nM.

With `C[C@@H]1CN(Cc2ccc(-c3cnc4ccccc4c3)c(F)c2)C(=O)O1` [Example 294], the EC50 amounted to 327 nM.

On to `CC1CN(Cc2ccc(OCc3ccccc3Cl)cc2)C(=O)O1` (stereo not shown) [Example 117], for which the EC50 is 34.5 nM.

On to `CC1(C)COC(=O)N(Cc2ccc(OCC3CCCCC3)cc2)C1` [Example 17], for which the EC50 came out at 696 nM.

As for `C[C@@H]1CN(Cc2ccc(OCCCOc3ccc(F)cc3)nc2)C(=O)O1` [Example 229, (5R)-3-({6-[3-(4-fluorophenoxy)propoxy]pyridin-3-yl}methyl)-5-methyl-1,3-oxazolidin-2-one], the EC50 stood at 757 nM.

`C[C@H]1[C@@H](c2ccccc2)OC(=O)N1Cc1ccc(OCC2CCCCC2)cc1` [Example 27]: the concentration for a half-maximal effect (EC50) was 1140 nM.

With `COc1cccc(F)c1-c1ccc(CN2C[C@@H](C)OC2=O)cc1` [Example 172], the EC50 was found to be 31.4 nM.

On to `CC1(C)COC(=O)N(Cc2ccc(OCc3ccccc3)cc2)C1` [Example 21], for which the concentration giving a half-maximal response (EC50) turned out to be 819 nM.

Consider `C[C@@H]1CN(Cc2ccc(-c3ccc(Cl)c(Cl)c3)nc2)C(=O)O1` [Example 261], for which the EC50 worked out at 116 nM.

In the case of `CC(=O)c1cccc(-c2ccc(CN3C[C@@H](C)OC3=O)cc2)c1` [Example 193], the EC50 worked out at 514 nM.

Regarding `Cc1ccc(C(C)Oc2ccc(CN3CC(C)OC3=O)cc2)cc1` (stereo not shown) [Example 125], the EC50 is 24.1 nM.

Take `Cc1ccc(Cl)cc1-c1ccc(CN2C[C@@H](C)OC2=O)cn1` [Example 259]: the EC50 was determined as 1460 nM.

For the compound `C[C@@H]1CN(Cc2ccc(-c3ccc(Cl)cc3F)cc2)C(=O)O1` [Example 256], the EC50 is less than 39.8 nM.

As to `CC1CN(Cc2ccc(OCc3cccc(Cl)c3)cc2)C(=O)O1` (stereo not shown) [Example 108], the EC50 turned out to be 91.2 nM.

Turning to `C[C@@H]1CN(Cc2ccc(-c3ccc(C#N)cc3)cc2)C(=O)O1` [Example 191], the half-maximal effective concentration (EC50) is 166 nM.

As for `C[C@@H]1CN(Cc2ccc(CN3CCc4ccccc43)cc2)C(=O)O1` [Example 301, (5R)-3-[4-(2,3-Dihydro-1H-indol-1-ylmethyl)benzyl]-5-methyl-1,3-oxazolidin-2-one], the EC50 was determined as 389 nM.

Turning to `CC(Oc1ccc(CN2C[C@@H](C)OC2=O)cc1F)C1CCCCC1` (stereo partly drawn) [Example 230, (5R)-3-[4-(1-Cyclohexylethoxy)-3-fluorobenzyl]-5-methyl-1,3-oxazolidin-2-one], the EC50 was less than 21.6 nM.

Consider `CC1CN(Cc2ccc(OCCc3cccc(F)c3)cc2)C(=O)O1` (stereo not shown) [Example 101], for which the EC50 was determined as 188 nM.

As to `C[C@@H]1CN(Cc2ccc(OCCCc3ccccc3)cc2)C(=O)O1` [Example 204, (5R)-5-methyl-3-[4-(3-phenylpropoxy)benzyl]-1,3-oxazolidin-2-one], the EC50 is 24.8 nM.

`O=C1OC(c2ccccc2)CN1Cc1ccc(OCc2ccccn2)cc1` (stereo not shown) [Example 5]: the EC50 came to 1280 nM.

Take `C[C@@H]1CN(Cc2ccc(-c3cccc(F)c3F)cc2)C(=O)O1` [Example 244]: the EC50 was found to be 97.2 nM.

Turning to `C[C@@H]1CN(Cc2ccc(-c3cc4ccccc4o3)cc2)C(=O)O1` [Example 157], the EC50 is less than 32.5 nM.

In the case of `COc1ccc(F)c(F)c1-c1ccc(CN2C[C@@H](C)OC2=O)cc1` [Example 243], the EC50 is less than 25.3 nM.

Consider `O=C1OC[C@@H]2CCCC[C@@H]2N1Cc1ccc(OCc2ccccc2)cc1` [Example 4], for which the EC50 is 647 nM.

Take `CC(Oc1ccc(CN2CC(C)(C)COC2=O)cc1)c1ccccc1` (stereo not shown) [Example 45]: the EC50 was determined as 213 nM.

Consider `Cc1cc(CN2C[C@@H](C)OC2=O)cc(C)c1OCc1ccccc1` [Example 184], for which the EC50 amounted to 964 nM.

As for `C[C@@H]1CN(Cc2ccc(-c3ccc4c(c3)CCO4)nc2)C(=O)O1` [Example 264], the EC50 amounted to 561 nM.

Take `CC1CN(Cc2ccc(O[C@@H](C)c3ccccc3)cc2)C(=O)O1` (stereo partly shown) [Example 144]: the concentration for a half-maximal effect (EC50) stood at 84.8 nM.

With `COc1cc(COc2ccc(CN3CC(C)OC3=O)cc2)ccc1C` (stereo not shown) [Example 146], the concentration giving a half-maximal response (EC50) came to 1110 nM.
